Common to all, as to assay: cAMP functional assay (HTRF) in HEK293 cells in presence of 0.1% casein
Holding throughout (assay type): cell-based

For test [1], the target named is T1, human glucagon receptor (GcgR) (Homo sapiens, UniProt P47871).
T1 construct: expressed in transfected cells; host or cells: HEK293
Conditions: HEK293 cells expressing human GcgR, geometric mean, read-out: hGcgR cAMP Rel EC50 nM (SEM, n).

The target of test [2] is T2, human GLP-1 receptor (GLP-1R) (Homo sapiens, UniProt P43220).
T2 construct: expressed in transfected cells; host or cells: HEK293
The settings on record: HEK293 cells expressing human GLP-1R, geometric mean, read-out: hGLP1R cAMP Rel EC50 nM (SEM, n).

Test [3] has as its target T3, human glucose-dependent insulinotropic peptide receptor (GIPR) (Homo sapiens, UniProt P48546).
T3 construct: expressed in transfected cells; host or cells: HEK293
T3 sequence (P48546 22-466): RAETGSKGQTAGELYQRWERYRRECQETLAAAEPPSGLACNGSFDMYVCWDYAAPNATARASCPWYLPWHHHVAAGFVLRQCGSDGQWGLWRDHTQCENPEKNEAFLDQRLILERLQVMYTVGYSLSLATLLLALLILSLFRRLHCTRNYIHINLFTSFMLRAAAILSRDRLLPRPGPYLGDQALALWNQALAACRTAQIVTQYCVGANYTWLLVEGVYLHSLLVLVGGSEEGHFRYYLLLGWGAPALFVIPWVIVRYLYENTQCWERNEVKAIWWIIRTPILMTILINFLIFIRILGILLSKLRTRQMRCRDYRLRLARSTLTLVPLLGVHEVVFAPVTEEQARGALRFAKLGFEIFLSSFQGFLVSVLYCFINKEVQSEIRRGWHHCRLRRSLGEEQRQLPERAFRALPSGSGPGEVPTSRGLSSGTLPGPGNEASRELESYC
The settings on record: HEK293 cells expressing human GIPR, geometric mean, read-out: hGIPR cAMP Rel EC50 nM (SEM, n).

Molecules are shown by their SMILES. *1 amine or outer side, *2 acyl side, *3 side chain or, on linkers, in order; H or OH if unused. Where a SMILES comes first, the peptide text is derived from it. Side-chain parts run from the residue outwards. [ ]: non-standard residue; d: D form. The star is where a group is joined. C20 diacid = O=C(O)CCCCCCCCCCCCCCCCCCC(=O)*; γGlu = O=C(O)[C@H](CCC(=O)[*:2])N[*:1]; αMeF = C[C@](N)(Cc1ccccc1)C(=O)O; 4Pal = N[C@@H](Cc1ccncc1)C(=O)O; αMeL = CC(C)C[C@](C)(N)C(=O)O; AEEA = NCCOCCOCC(=O)O; Aib = CC(C)(N)C(=O)O A value given as a limit tells only on which side of the number the result lay.

T2 sequence (P43220 24-463): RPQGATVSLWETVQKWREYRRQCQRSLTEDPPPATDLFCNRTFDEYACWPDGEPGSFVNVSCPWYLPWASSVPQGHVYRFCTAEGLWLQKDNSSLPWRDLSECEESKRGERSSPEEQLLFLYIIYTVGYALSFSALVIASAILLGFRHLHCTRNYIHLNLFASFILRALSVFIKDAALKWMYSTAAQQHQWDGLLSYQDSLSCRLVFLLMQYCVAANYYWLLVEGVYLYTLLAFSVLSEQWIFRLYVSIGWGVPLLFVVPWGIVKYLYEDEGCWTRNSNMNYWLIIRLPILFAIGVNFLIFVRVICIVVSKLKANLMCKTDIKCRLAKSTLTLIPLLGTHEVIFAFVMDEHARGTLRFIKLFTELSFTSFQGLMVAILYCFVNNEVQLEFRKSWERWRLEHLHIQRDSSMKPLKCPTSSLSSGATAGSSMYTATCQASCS
T1 sequence (P47871 26-477): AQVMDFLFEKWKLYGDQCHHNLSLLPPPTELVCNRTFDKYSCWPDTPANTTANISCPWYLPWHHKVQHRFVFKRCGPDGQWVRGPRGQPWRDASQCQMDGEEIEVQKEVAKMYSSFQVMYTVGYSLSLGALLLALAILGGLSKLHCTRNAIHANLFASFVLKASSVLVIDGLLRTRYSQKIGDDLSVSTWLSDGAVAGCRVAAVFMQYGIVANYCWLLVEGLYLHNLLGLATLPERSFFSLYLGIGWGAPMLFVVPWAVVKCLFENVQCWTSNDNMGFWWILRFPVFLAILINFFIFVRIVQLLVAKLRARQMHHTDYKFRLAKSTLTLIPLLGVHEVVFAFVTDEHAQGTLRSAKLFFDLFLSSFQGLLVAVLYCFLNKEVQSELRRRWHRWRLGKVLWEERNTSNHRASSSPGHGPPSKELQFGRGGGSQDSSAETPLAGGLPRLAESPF

Regarding `CC[C@H](C)[C@H](NC(=O)[C@H](CO)NC(=O)[C@H](Cc1ccc(O)cc1)NC(=O)[C@H](CC(=O)O)NC(=O)[C@H](CO)NC(=O)[C@@H](NC(=O)[C@](C)(Cc1ccccc1)NC(=O)[C@@H](NC(=O)CNC(=O)[C@H](CCC(=O)O)NC(=O)C(C)(C)NC(=O)[C@@H](N)Cc1ccc(O)cc1)[C@@H](C)O)[C@@H](C)CC)C(=O)N[C@@H](C)C(=O)N[C@@H](CC(C)C)C(=O)N[C@@H](CC(=O)O)C(=O)N[C@@H](CCCCN)C(=O)N[C@@H](CCCCNC(=O)COCCOCCNC(=O)COCCOCCNC(=O)CC[C@H](NC(=O)CCCCCCCCCCCCCCCCCCC(=O)O)C(=O)O)C(=O)N[C@@H](Cc1c[nH]cn1)C(=O)N[C@@H](CCC(N)=O)C(=O)NC(C)(C)C(=O)N[C@@H](CC(=O)O)C(=O)N[C@@H](Cc1ccccc1)C(=O)N[C@H](C(=O)N[C@@H](CCC(=O)O)C(=O)N[C@@H](Cc1ccncc1)C(=O)N[C@@H](CC(C)C)C(=O)N[C@@H](CC(C)C)C(=O)N[C@@H](CCC(=O)O)C(=O)N[C@@H](C)C(=O)NCC(=O)N1CCC[C@H]1C(=O)N[C@@H](CO)C(=O)N[C@@H](CO)C(=O)NCC(=O)N[C@@H](C)C(=O)N1CCC[C@H]1C(=O)N1CCC[C@H]1C(=O)N1CCC[C@H]1C(=O)N[C@@H](CO)C(N)=O)C(C)C` [Example 43] (H-Y[Aib]EGT[αMeF]ISDYSIALDKK([AEEA-AEEA-γGlu-C20 diacid])HQ[Aib]DFVE[4Pal]LLEAGPSSGAPPPS-NH2), the EC50 was more than 5000 nM in test [1], 1020 nM in test [2] and 0.0154 nM in test [3].

Regarding `CC[C@H](C)[C@H](NC(=O)[C@H](Cc1ccccc1)NC(=O)[C@@H](NC(=O)CNC(=O)[C@H](CCC(=O)O)NC(=O)C(C)(C)NC(=O)[C@@H](N)Cc1ccc(O)cc1)[C@@H](C)O)C(=O)N[C@@H](CO)C(=O)N[C@@H](CC(=O)O)C(=O)N[C@@H](Cc1ccc(O)cc1)C(=O)N[C@@H](CO)C(=O)N[C@H](C(=O)N[C@@](C)(CC(C)C)C(=O)N[C@@H](CC(C)C)C(=O)N[C@@H](CC(=O)O)C(=O)N[C@@H](CCCCN)C(=O)N[C@@H](CCCCNC(=O)COCCOCCNC(=O)COCCOCCNC(=O)CC[C@H](NC(=O)CCCCCCCCCCCCCCCCC(=O)O)C(=O)O)C(=O)N[C@@H](Cc1c[nH]cn1)C(=O)N[C@@H](CCC(N)=O)C(=O)NC(C)(C)C(=O)N[C@@H](CC(=O)O)C(=O)N[C@@H](Cc1ccccc1)C(=O)N[C@H](C(=O)N[C@@H](CCC(=O)O)C(=O)N[C@@H](Cc1ccncc1)C(=O)N[C@@H](CC(C)C)C(=O)N[C@@H](CC(C)C)C(=O)N[C@@H](C)C(=O)NCC(=O)NCC(=O)N1CCC[C@H]1C(=O)N[C@@H](CO)C(=O)N[C@@H](CO)C(=O)NCC(=O)N[C@@H](C)C(=O)N1CCC[C@H]1C(=O)N1CCC[C@H]1C(=O)N1CCC[C@H]1C(=O)N[C@@H](CO)C(N)=O)C(C)C)[C@@H](C)CC` [Example 49], the concentration for a half-maximal effect (EC50) was 2860 nM in test [1], more than 5000 nM in test [2] and 0.0156 nM in test [3].

With `CC[C@H](C)[C@H](NC(=O)[C@H](CC(C)C)NC(=O)[C@@H](NC(=O)CNC(=O)[C@H](CCC(=O)O)NC(=O)C(C)(C)NC(=O)[C@@H](N)Cc1ccc(O)cc1)[C@@H](C)O)C(=O)N[C@@H](CO)C(=O)N[C@@H](CC(=O)O)C(=O)N[C@@H](Cc1ccc(O)cc1)C(=O)N[C@@H](CO)C(=O)N[C@H](C(=O)N[C@@](C)(CC(C)C)C(=O)N[C@@H](CC(C)C)C(=O)N[C@@H](CC(=O)O)C(=O)N[C@@H](CCCCN)C(=O)N[C@@H](CCCCNC(=O)COCCOCCNC(=O)COCCOCCNC(=O)CC[C@H](NC(=O)CCCCCCCCCCCCCCCCCCC(=O)O)C(=O)O)C(=O)N[C@@H](Cc1c[nH]cn1)C(=O)N[C@@H](CCC(N)=O)C(=O)NC(C)(C)C(=O)N[C@@H](CCC(=O)O)C(=O)N[C@@H](Cc1ccccc1)C(=O)N[C@H](C(=O)N[C@@H](CCC(=O)O)C(=O)N[C@@H](Cc1ccc(O)cc1)C(=O)N[C@@H](CC(C)C)C(=O)N[C@@H](CC(C)C)C(=O)N[C@@H](CCC(=O)O)C(=O)N[C@H](C(=O)NCC(=O)N1CCC[C@H]1C(=O)N[C@@H](CO)C(=O)N[C@@H](CO)C(=O)NCC(=O)N[C@@H](C)C(=O)N1CCC[C@H]1C(=O)N1CCC[C@H]1C(=O)N1CCC[C@H]1C(=O)N[C@@H](CO)C(N)=O)[C@@H](C)O)C(C)C)[C@@H](C)CC` [Example 72] (H-Y[Aib]EGTLISDYSI[αMeL]LDKK([AEEA-AEEA-γGlu-C20 diacid])HQ[Aib]EFVEYLLETGPSSGAPPPS-NH2), the EC50 in test [1] is more than 5000 nM; in test [2] it was more than 5000 nM; in test [3], 0.0182 nM.

`CC[C@H](C)[C@H](NC(=O)[C@H](Cc1ccccc1)NC(=O)[C@@H](NC(=O)CNC(=O)[C@H](CCC(=O)O)NC(=O)C(C)(C)NC(=O)[C@@H](N)Cc1ccc(O)cc1)[C@@H](C)O)C(=O)N[C@@H](CO)C(=O)N[C@@H](CC(=O)O)C(=O)N[C@@H](Cc1ccc(O)cc1)C(=O)N[C@@H](CO)C(=O)N[C@H](C(=O)N[C@@](C)(CC(C)C)C(=O)N[C@@H](CC(C)C)C(=O)N[C@@H](CC(=O)O)C(=O)N[C@@H](CCCCN)C(=O)N[C@@H](CCCCNC(=O)COCCOCCNC(=O)COCCOCCNC(=O)CC[C@H](NC(=O)CCCCCCCCCCCCCCCCCCC(=O)O)C(=O)O)C(=O)N[C@@H](Cc1c[nH]cn1)C(=O)N[C@@H](CCC(N)=O)C(=O)NC(C)(C)C(=O)N[C@@H](CCC(=O)O)C(=O)N[C@@H](Cc1ccccc1)C(=O)N[C@H](C(=O)N[C@@H](CCC(=O)O)C(=O)N[C@@H](Cc1ccncc1)C(=O)N[C@@H](CC(C)C)C(=O)N[C@@H](CC(C)C)C(=O)N[C@@H](C)C(=O)N[C@@H](CCC(N)=O)C(=O)NCC(=O)N1CCC[C@H]1C(=O)N[C@@H](CO)C(=O)N[C@@H](CO)C(=O)NCC(=O)N[C@@H](C)C(=O)N1CCC[C@H]1C(=O)N1CCC[C@H]1C(=O)N1CCC[C@H]1C(=O)N[C@@H](CO)C(N)=O)C(C)C)[C@@H](C)CC` [Example 57] (H-Y[Aib]EGTFISDYSI[αMeL]LDKK([AEEA-AEEA-γGlu-C20 diacid])HQ[Aib]EFVE[4Pal]LLAQGPSSGAPPPS-NH2): the EC50 in test [1] was 886 nM; in test [2], more than 5000 nM; in test [3], 0.0177 nM.

For `CC[C@H](C)[C@H](NC(=O)[C@H](Cc1ccccc1)NC(=O)[C@@H](NC(=O)CNC(=O)[C@H](CCC(=O)O)NC(=O)C(C)(C)NC(=O)[C@@H](N)Cc1ccc(O)cc1)[C@@H](C)O)C(=O)N[C@@H](CO)C(=O)N[C@@H](CC(=O)O)C(=O)N[C@@H](Cc1ccc(O)cc1)C(=O)N[C@@H](CO)C(=O)N[C@H](C(=O)N[C@@](C)(CC(C)C)C(=O)N[C@@H](CC(C)C)C(=O)N[C@@H](CC(=O)O)C(=O)N[C@@H](CCCCN)C(=O)N[C@@H](CCCCNC(=O)COCCOCCNC(=O)COCCOCCNC(=O)CC[C@H](NC(=O)CCCCCCCCCCCCCCCCCCC(=O)O)C(=O)O)C(=O)N[C@@H](Cc1c[nH]cn1)C(=O)N[C@@H](CCC(N)=O)C(=O)NC(C)(C)C(=O)N[C@@H](CC(=O)O)C(=O)N[C@@H](Cc1ccccc1)C(=O)N[C@H](C(=O)N[C@@H](CCC(=O)O)C(=O)N[C@@H](Cc1ccncc1)C(=O)N[C@@H](CC(C)C)C(=O)N[C@@H](CC(C)C)C(=O)N[C@@H](CCC(=O)O)C(=O)NCC(=O)NCC(=O)N1CCC[C@H]1C(=O)N[C@@H](CO)C(=O)N[C@@H](CO)C(=O)NCC(=O)N[C@@H](C)C(=O)N1CCC[C@H]1C(=O)N1CCC[C@H]1C(=O)N1CCC[C@H]1C(=O)N[C@@H](CO)C(N)=O)C(C)C)[C@@H](C)CC` [Example 47] (H-Y[Aib]EGTFISDYSI[αMeL]LDKK([AEEA-AEEA-γGlu-C20 diacid])HQ[Aib]DFVE[4Pal]LLEGGPSSGAPPPS-NH2), the values for the EC50 in test [1], in test [2] and in test [3] were 757 nM, more than 5000 nM and 0.0234 nM, respectively.

The term EC50 denotes the concentration needed to bring the measured effect to its halfway point.

The values above are taken from patent US12723063B2, “GIPR-agonist compounds” (Eli Lilly and Company, priority 2019, dated 2026).
